One data set relates to rodent GSK3β homologs. The settings on record: cited from earlier work.
A further data set concerns hESC. The experiment in a line: Immunocytochemistry, percentage of marker positive cells in differentiating cultures. Type of data set: cell-based, human. The method, then:
(§1) Immunohistochemistry: Cells were fixed in 4% PFA and blocked with 1% bovine serum albumin (BSA) with 0.3% Triton. Brain tissue sections were washed in cold PBS and processed similarly. Primary antibodies were diluted in 1-5% BSA or Normal Goat Serum and incubated according to manufacturer recommendations. A comprehensive list of antibodies and sources is provided as Table 6. Appropriate Alexa488, Alexa555 and Alexa647-conjugated secondary antibodies (Molecular Probes, Carlsbad, California) were used with 4′,6-diamidino-2-phenylindole (DAPI) nuclear counterstain (Thermo Fisher, Rockford, Illinois). For some analyses biotinylated secondary antibodies were used followed by visualization via DAB (3,3′-Diaminobenzidine) chromogen.
Cell Counts and Stereological Analyses. The percentages of marker positive cells at the floor plate (day 11) FIG. 1, midbrain dopamine neuron precursor (day 25), FIG. 2 and mature DA neuron stages (day 50 or later) FIGS. 3 and 11, were determined in samples derived from at least 3 independent experiments each. Images for quantification were selected in a uniform random manner and each image was scored first for the number of DAPI-positive nuclei, followed by counting the number of cells expressing the marker of interest. Data are presented as mean±SEM. Quantification of human cells (identified with anti-hNA) and TH+ neurons within grafts was performed on every tenth section where a graft was identifiable. Cell counts and graft volume was determined using the optical fractionator's probe and the Cavalieri estimator using the Stereo Investigator software (MBF bioscience, Vermont) as described previously in Tabar, et al. Nat. Biotechnol. 23:601-606 (2005), herein incorporated by reference. Data are presented as estimated total cell number and total graft volume+/−standard error of means (SEM).
as §1, with “chromogen. HPLC” for “chromogen.”
Analysis. Reversed-phase HPLC with electrochemical detection for measuring levels of dopamine, Homovanillic acid (HVA) and DOPAC (3,4-Dihydroxy-Phenylacetic Acid) was performed as described previously (Roy, et al. Nature Med. 12:1259-1268 (2006); Studer, et al. Brain Res. Bull. 41:143-150 (1996), all of which are herein incorporated by reference). Culture samples were collected in perchloric acid at day 65 of differentiation. For some experiments DA was measured directly in the medium using the same detection system but following aluminum extraction of dopamine and its metabolites using a commercially available kit as described previously (Studer, et al. Brain Res. Bull. 41:143-150 (1996), herein incorporated by reference). […]

For data set [1], the system named is PD-iPSC and control iPSC derived cells. Briefly: Cell viability assay with alamar-blue, dose response for toxin challenge. Type of data set: cell-based, human. Conditions: 48 hrs, 5 and 10 uM, day 60. An excerpt:
Note: this assay tests for overall cell death while the most dramatic effects were observed specifically in DA neurons (see FIG. 14). Therefore, alamar blue based quantification will likely underestimate the extent of the differential effect observed on DA neuron lineages.
Exemplary quantification of cell viability—dose response assay for toxin challenge. […] Note: this assay tests for overall cell death while the most dramatic effects were observed specifically in DA neurons (see FIG. 14). Therefore, alamar blue based quantification will likely underestimate the extent of the differential effect observed on DA neuron lineages.
Exemplary quantification of cell viability-dose response assay for toxin challenge. […] Note: this assay tests for overall cell death while the most dramatic effects were observed specifically in DA neurons (see FIG. 14). Therefore, alamar blue based quantification will likely underestimate the extent of the differential effect observed on DA neuron lineages.

For data set [2], the system named is PINK1 mutant PD-iPSC derived TH+ DA neurons. The experiment in a line: Toxin challenge, TH immunocytochemistry. The data set is classed as cell-based, human. The method, then:
(§2) PD-iPSC derived TH+ DA neurons derived via the floor-plate based protocols of the present inventions were more vulnerable to toxin challenge (valinomycin: mitochondria ionophore, 5 uM, 48 hr) than control-iPSC derived cells. […] G-H) low power images of immunocytochemistry for Tuj1 (red) and TH (green) by floor-plate based protocol at day 60 of differentiation: PD-iPSC of normal (G), versus toxin challenge (H) conditions and control iPSC of normal (I), versus toxin challenge (J) conditions. K-N) low power images of immunocytochemistry for Tuj1 (red) and TH (green) by MS5 based protocol at day 60 of differentiation: PD-iPSC of normal (K), versus toxin challenge (L) conditions and control iPSC of normal (M), versus toxin challenge (N) conditions.
(§3) E. DA neurons derived from genetic PD-iPS cells are more vulnerable to toxic stimulation. FIG. 24-25. PD-iPSC derived TH+DA neurons derived via floor-plate based protocol were more vulnerable to toxin challenge (valinomycin: mitochondria ionophore, 5 uM (ranging in concentration from 1-10 uM), 48 hr) than control-iPSC derived cells. […] Normal condition both of PD- and control-iPSC derived cultures obtained via MS5 based protocol (D, PD-iPSC derived cells shown), TH+ neurons following toxin challenge in PD-iPSC (E), and control-iPSC derived cultures (F) obtained via MS5 protocol. G-H) low power images of immunocytochemistry for Tuj1 (red) and TH (green) by floor-plate based protocol at day 60 of differentiation: PD-iPSC of normal (G), versus toxin challenge (H) conditions and control iPSC of normal (I), versus toxin challenge (J) conditions. K-N) low power images of immunocytochemistry for Tuj1 (red) and TH (green) by MS5 based protocol at day 60 of differentiation: PD-iPSC of normal (K), versus toxin challenge (L) conditions and control iPSC of normal (M), versus toxin challenge (N) conditions. F.
(§4) Exemplary DA neurons derived from PINK1 mutant PD-iPSC are more vulnerable to toxic stimulation. […]

In data set [3] the test system is control-iPSC derived TH+ DA neurons. The experiment in a line: Toxin challenge, TH immunocytochemistry. The data set is classed as cell-based, human. Conditions: 5 uM, 48 hr, floor-plate protocol, day 60. The method, then: as §2, §3, §4
The subject of a further data set is rosette stage cells. The experiment in a line: Rosette-based DA neuron induction culture. The data set is classed as cell-based, human. The settings on record: concentration suitable for patterning floor plate cells. The text has this: Both protocols used dual-SMAD inhibition to accelerate neural fate acquisition. LDN was used for BMP inhibition in the floor plate protocol while the traditional noggin induction was used for rosette cultures. The abbreviations are: LDN: LDN-193189, SB: SB431542, SHH (purmorphamine+SHH C25II), FGF8: FGF8, BAGCT: BDNF+ascorbic acid+GDNF+dbcAMP+TGFβ3. SHH/FGF8 in the rosette protocol used SHH C25I alone in the absence of purmorphamine following the initial recommendation for patterning of rosette-derived DA neuron cultures. […] BASF: BDNF+ascorbic acid+SHH/FGF8.
For rosette-based DA neuron induction previously described protocols were followed in part (Perrier, et al. Proc Natl Acad Sci USA 101:12543-8 (2004), herein incoropoated by reference) with at least one exception where dual-SMAD inhibition was used to accelerate the initial neural induction step. In brief, hESCs were induced towards neural fate by coculture with irradiated MS5 cells in KSR supplemented with SB431542 and Noggin (250 ng/ml (ranging in concentration from 10-1000 ng/ml); R&D), from day 2-8 and SHH+FGF8 from day 6-11 of differentiation. After 11 days in KSR, neural rosettes were manually isolated and cultured (P1 stage) in N2 medium supplemented with SHH, FGF8, BDNF and AA as described previously (Perrier, et al. Proc Natl Acad Sci USA 101:12543-8 (2004), herein incorporated by reference). […]

Regarding `Cc1c[nH]c(-c2cnc(NCCNc3ccc(C#N)cn3)nc2-c2ccc(Cl)cc2Cl)n1` [CHIR99021, 6-(2-(4-(2,4-dichlorophenyl)-5-(4-methyl-1H-imidazol-2-yl)pyrimidin-2-ylamino)ethylamino)nicotinonitrile], the “IC50 against rodent GSK3β homologs” value with rodent GSK3β homologs is “nanomolar”. For the same molecule, in the data set on hESC, the “potency at inducing LMX1A expression compared with recombinant Wnt3A or Wnt1” value was “more potent” and the “timing of exposure giving maximum LMX1A induction” value was “day 3-11”. For the same molecule, in the data set on hESC (day 11), the “LMX1A induction in FOXA2+ floor plate precursors” value is given as “induced LMX1A” and the “co-expression of FOXA2/LMX1A” value is listed as “induced co-expression”.
On to `CC(C)[C@@H]1NC(=O)[C@H](C)OC(=O)[C@@H](C(C)C)NC(=O)[C@@H](C(C)C)OC(=O)[C@H](C(C)C)NC(=O)[C@H](C)OC(=O)[C@@H](C(C)C)NC(=O)[C@@H](C(C)C)OC(=O)[C@H](C(C)C)NC(=O)[C@H](C)OC(=O)[C@@H](C(C)C)NC(=O)[C@@H](C(C)C)OC1=O` [valinomycin], for which the “cell survival PD-iPSC versus control iPSC” value in data set [1] is reported as “differential cell survival”. The “degeneration of TH+ DA neurons” value in data set [2] (5 uM, 48 hr, floor-plate protocol, day 60) was “nearly complete degeneration”; in data set [3] it was “partially degenerated”. The “vulnerability of PD- versus control-derived TH+ neurons” value in data set [2] (classic MS5 based protocol) is “did not show differential vulnerability”.
With `c1ccc2c(Oc3nc(Nc4ccc(N5CCOCC5)cc4)c4ncn(C5CCCCC5)c4n3)cccc2c1` [Purmorphamine], in the data set with rosette stage cells, the “toxicity at rosette stage” value is “shows toxicity”.

B1: FGF8: Fibroblast growth factor 8 (protein, UniProt P55075 23-233, looked up)
Fibroblast growth factor 8: QEGPGRGPALGRELASLFRAGREPQGVSQQHVREQSLVTDQLSRRLIRTYQLYSRTSGKHVQVLANKRINAMAEDGDPFAKLIVETDTFGSRVRVRGAETGLYICMNKKGKLIAKSNGKGKDCVFTEIVLENNYTALQNAKYEGWYMAFTRKGRPRKGSKTRQHQREVHFMKRLPRGHHTTEQSLRFEFLNYPPFTRSLRGSQRTWAPEPR
For the molecule B1, the “co-expression of FOXA2/LMX1A” value in the data set with hESC (day 11) is recorded as “only marginal effects”.
